One may read the pest or weed control as the degree to which the test organism was suppressed or injured, in per cent. Low readings indicate a weak effect, high ones a strong effect.

Data on 16 compounds can be found in patent US8895761B2, “4-phenylpyrane-3,5-diones, 4-phenylthiopyrane-3,5-diones and 2-phenylcyclohexane-1,3,5-triones as herbicides” (Syngenta Limited, priority 2007, dated 2014).

What all share (format): in vivo
The subject of assay [1] is Avena fatua (AVEFA). As to the kind of experiment: Post-emergence herbicidal glasshouse test, Avena fatua. The conditions noted are these: Avena fatua, 312 h, rate 250 g/ha, evaluated after 13 days, scale 100 = total damage to plant, 0 = no damage. The gist of the method: (§1)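 Seeds were sown in standard soil in pots and sprayed one day after sowing (pre-emergence) or after 8 days' growth (post-emergence). The spray was an aqueous solution from the active ingredient formulated in acetone/water (50:50) with 0.5% Tween 20. Plants grew at 24/16° C. day/night, 14 h light, 65% humidity, watered twice daily. Damage was scored after 13 days on a scale from 0 (no damage) to total damage.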

The subject of assay [2] is Alopecurus myosuroides (ALOMY). As to the kind of experiment: Post-emergence herbicidal glasshouse test, Alopecurus myosuroides. The conditions noted are these: Alopecurus myosuroides, 312 h, rate 250 g/ha, evaluated after 13 days, scale 100 = total damage to plant, 0 = no damage. The gist of the method: as §1
In assay [3] the test system is Setaria faberi (SETFA). As to the kind of experiment: Post-emergence herbicidal glasshouse test, Setaria faberi. The conditions noted are these: Setaria faberi, 312 h, rate 250 g/ha, evaluated after 13 days, scale 100 = total damage to plant, 0 = no damage. The procedure:
Seeds of a variety of test species were sown in standard soil in pots. After cultivation for one day (pre-emergence) or after 8 days cultivation (post-emergence) under controlled conditions in a glasshouse (at 24/16° C., day/night; 14 hours light; 65% humidity), the plants were sprayed with an aqueous spray solution derived from the formulation of the technical active ingredient in acetone/water (50:50) solution containing 0.5% Tween 20 (polyoxyethelyene sorbitan monolaurate, CAS RN 9005-64-5). The test plants were then grown in a glasshouse under controlled conditions in a glasshouse (at 24/16° C., day/night; 14 hours light; 65% humidity) and watered twice daily. After 13 days for pre and post-emergence, the test was evaluated ([…] to plant; 0=no damage to plant).
Setaria faberi (SETFA), Lolium perenne (LOLPE), Alopecurus myosuroides (ALOMY), Echinochloa crus-galli (ECHCG) and Avena fatua (AVEFA).

Assay [4] relates to Echinochloa crus-galli (ECHCG). As to the kind of experiment: Post-emergence herbicidal glasshouse test, Echinochloa crus-galli. Particulars: Echinochloa crus-galli, 312 h, rate 250 g/ha, evaluated after 13 days, scale 100 = total damage to plant, 0 = no damage. The procedure, abridged:
as §1

For assay [5], the system named is Echinochloa crus-galli (ECHCG). As to the kind of experiment: Pre-emergence herbicidal glasshouse test, Echinochloa crus-galli. The conditions noted are these: Echinochloa crus-galli, 312 h, rate 250 g/ha, evaluated after 13 days, scale 100 = total damage to plant, 0 = no damage. The gist of the method:
as §1

Assay [6] relates to Alopecurus myosuroides (ALOMY). In words: Pre-emergence herbicidal glasshouse test, Alopecurus myosuroides. The conditions noted are these: Alopecurus myosuroides, 312 h, rate 250 g/ha, evaluated after 13 days, scale 100 = total damage to plant, 0 = no damage. The procedure, abridged: as §1
The test system of assay [7] is Lolium perenne (LOLPE). As to the kind of experiment: Post-emergence herbicidal glasshouse test, Lolium perenne. Particulars: 312 h, rate 250 g/ha, evaluated after 13 days, scale 100 = total damage to plant, 0 = no damage. The gist of the method: as §1
Assay [8] relates to Avena fatua (AVEFA). In words: Pre-emergence herbicidal glasshouse test, Avena fatua. Particulars: Avena fatua, 312 h, rate 250 g/ha, evaluated after 13 days, scale 100 = total damage to plant, 0 = no damage. The gist of the method:
as §1

In assay [9] the test system is Lolium perenne (LOLPE). In words: Pre-emergence herbicidal glasshouse test, Lolium perenne. Particulars: 312 h, rate 250 g/ha, evaluated after 13 days, scale 100 = total damage to plant, 0 = no damage. The procedure, abridged: as §1

For the compound `CCc1cc(-c2ccc(Cl)cc2Cl)cc(CC)c1C1=C(O)[C@@]2(C)CC[C@H](O2)C1=O` (relative stereo) [Compound A-34], the pest or weed control at 250 g/ha worked out at 20% in [1], 30% in [2], 90% in [3] and 70% in assay [4].

Regarding `CCc1cc(-c2cc(F)c(F)c(F)c2)ccc1C1=C(O)C(C)(C)SC(C)(C)C1=O` [Compound B-6], the pest or weed control at 250 g/ha in assay [5] was 0%; in assay [1] it was 90%; in [2], 90%; in assay [6] it was 50%; in assay [7], 80%; in assay [8], 0%. Also, the pest or weed control at 250 g/ha in assay [4] was found to be 80%; in assay [9] it was 50%.

Turning to `CCc1cc(-c2ccc(F)c(F)c2F)ccc1C1=C(O)C(C)(C)SC(C)(C)C1=O` [Compound B-9], the pest or weed control at 250 g/ha in assay [5] turned out to be 0%; in assay [1], 80%; in [2] it was 60%; in assay [6], 10%; in assay [7] it was 60%; in assay [8], 0%. The pest or weed control at 250 g/ha in [4] came out at 40%; in [9] it was 10%.

`CCc1cc(-c2ccc(F)c(F)c2)ccc1C1=C(O)C(C)(C)[S+]([O-])C(C)(C)C1=O` (stereo not shown) [Compound B-11]: the pest or weed control at 250 g/ha in assay [5] came out at 0%; in [1], 70%; in [2], 60%; in assay [6] it was 50%; in assay [7], 60%; in assay [8] it was 20%. Also, the pest or weed control at 250 g/ha in assay [4] and in [9] was 40% each time.

As for `CCc1cc(-c2ccc(F)c(OC)c2)ccc1C1=C(O)C(C)(C)S(=O)(=O)C(C)(C)C1=O` [Compound B-16], the pest or weed control at 250 g/ha in [5] came to 40%; in assay [1], 80%; in assay [2], 50%; in assay [6], 20%; in [7], 60%; in assay [8], 30%. In addition, the figures for the pest or weed control at 250 g/ha in assay [4] and in [9] were 80% and 40%, respectively.

Consider `CCc1cc(-c2ccc(F)c(F)c2)ccc1C1=C(O)C(C)(C)S(=O)(=O)C(C)(C)C1=O` [Compound B-17], for which the pest or weed control at 250 g/ha in assay [5] is 10%; in [1], 70%; in assay [2] it was 80%; in assay [6] it was 50%; in assay [7], 70%; in [8], 10%. Further, the pest or weed control at 250 g/ha in assay [4] and in assay [9] was 50% throughout.

As for `CCc1cc(-c2cc(F)c(F)c(F)c2)ccc1C1=C(O)C(C)(C)S(=O)(=O)C(C)(C)C1=O` [Compound B-18], the pest or weed control at 250 g/ha amounted to 30% in assay [5]; 90% in [1]; 70% in assay [2]; 30% in assay [6]; 80% in assay [7]; 30% in assay [8]. In addition, the pest or weed control at 250 g/ha came to 80% in assay [4] and 50% in assay [9].

For the compound `CCc1cc(-c2ccc(F)c(OC)c2)ccc1C1=C(O)C(C)(C)C(=O)C(C)(C)C1=O` [Compound C-3], the pest or weed control at 250 g/ha in assay [5] turned out to be 10%; in [1], 50%; in assay [2] it was 30%; in [6] it was 10%; in assay [7], 60%; in assay [8] it was 0%. Also, the pest or weed control at 250 g/ha amounted to 70% in assay [4] and 10% in assay [9].

With `CCc1cc(-c2ccc(F)c(F)c2)ccc1C1=C(O)C(C)(C)C(=O)C(C)(C)C1=O` [Compound C-4], the pest or weed control at 250 g/ha in [5] stood at 0%; in assay [1], 30%; in [2], 80%; in assay [6], 20%; in assay [7], 80%; in [8], 0%. In addition, the pest or weed control at 250 g/ha in assay [4] came out at 70%; in [9] it was 20%.

Consider `CCc1cc(-c2cc(F)c(F)c(F)c2)ccc1C1=C(O)C(C)(C)C(=O)C(C)(C)C1=O` [Compound C-5], for which the pest or weed control at 250 g/ha in assay [5] came to 0%; in assay [1], 90%; in assay [2] it was 100%; in [6] it was 30%; in assay [7], 70%; in assay [8], 20%. For the same compound, the results for the pest or weed control at 250 g/ha in assay [4] and in assay [9] were 100% and 40%, respectively.

Regarding `CCc1cc(-c2cc(Cl)ccc2OC)ccc1C1=C(O)C(C)(C)C(=O)C(C)(C)C1=O` [Compound C-6], the pest or weed control at 250 g/ha was 0% in assay [5]; 10% in [1]; 20% in [2]; 40% in assay [6]; 20% in assay [7]; 10% in assay [8]. For the same compound, the pest or weed control at 250 g/ha came out at 50% in [4] and 70% in assay [9].

For the compound `CCc1cc(-c2cc(F)c(F)cc2F)ccc1C1=C(O)C(C)(C)C(=O)C(C)(C)C1=O` [Compound C-7], the pest or weed control at 250 g/ha is 0% in [5]; 10% in assay [1]; 40% in assay [2]; 30% in assay [6]; 60% in assay [7]; 0% in assay [8]. Further, the pest or weed control at 250 g/ha in assay [4] stood at 40%; in assay [9], 20%.

On to `CCc1cc(-c2ccc(F)c(F)c2F)ccc1C1=C(O)C(C)(C)C(=O)C(C)(C)C1=O` [Compound C-8], for which the pest or weed control at 250 g/ha was 30% in assay [5]; 10% in assay [1]; 60% in [2]; 10% in assay [6]; 60% in [7]; 0% in assay [8]. The values for the pest or weed control at 250 g/ha in assay [4] and in [9] were 60% and 30%, respectively.

In the case of `CCc1cc(-c2ccc(Cl)c(Cl)c2)ccc1C1=C(OC(C)=O)C(C)(C)OC(C)(C)C1=O` [Compound D-2], the pest or weed control at 250 g/ha came out at 90% in assay [5]; 40% in assay [1]; 70% in assay [2]; 30% in assay [6]; 80% in assay [7]; 20% in assay [8]. In addition, the pest or weed control at 250 g/ha in assay [4] was found to be 90%; in assay [9], 100%.

As for `CCc1cc(-c2ccc(F)cc2)ccc1C1=C(OC(C)=O)C(C)(C)OC(C)(C)C1=O` [Compound D-3], the pest or weed control at 250 g/ha in assay [5] was determined as 100%; in assay [1] it was 80%; in assay [2], 100%; in assay [6], 90%; in [7], 100%; in assay [8], 70%. Moreover, the pest or weed control at 250 g/ha in assay [4] and in [9] was 100% throughout.

Take `CCc1cc(-c2ccc(F)cc2)ccc1C1=C(OC(=O)C(C)(C)C)C(C)OC(C)(C)C1=O` [Compound D-9]: the pest or weed control at 250 g/ha in [5] amounted to 50%; in assay [1], 10%; in assay [2], 70%; in assay [6] it was 60%; in assay [7] it was 80%; in [8], 0%. In addition, the pest or weed control at 250 g/ha was determined as 80% in assay [4] and 90% in assay [9].
